What was measured:
Assay in all cases: relative viability (nuclei count vs DMSO), 5 days (fraction); higher = more cells survive
Motesanib + Tozasertib = compound: CC1(C)CNc2cc(NC(=O)c3cccnc3NCc3ccncc3)ccc21 [Motesanib] + Cc1cc(Nc2cc(N3CCN(C)CC3)nc(Sc3ccc(NC(=O)C4CC4)cc3)n2)n[nH]1 [Tozasertib] (partner 0.1 µM)
How it was run: (§1)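 Dosing by pin tool came one day after lung cancer cell lines were seeded in 1536-well plates, using either one drug or a fixed anchor-drug dose plus five library-drug doses (not always all listed) in √10 steps. After 5 days, nuclei were counted on 4× images. Relative viability is treated-well nuclei count divided by vehicle-well nuclei count, and values are medians of duplicate plates.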

[1] = compound: C[C@@]1(C(=O)Nc2ccc(F)nc2)CCCN1c1nc(Nc2cc(C3CC3)n[nH]2)c2cccn2n1 + CC1(C)CCC(c2ccc(Cl)cc2)=C(CN2CCN(c3ccc(C(=O)NS(=O)(=O)c4ccc(N[C@H](CCN5CCOCC5)CSc5ccccc5)c(S(=O)(=O)C(F)(F)F)c4)cc3)CC2)C1 [Navitoclax] (partner 0.5 µM)
How it was run: as §1

[2] = compound: C[C@@]1(C(=O)Nc2ccc(F)nc2)CCCN1c1nc(Nc2cc(C3CC3)n[nH]2)c2cccn2n1 + C[C@@H](Oc1cc(-c2cnn(C3CCNCC3)c2)cnc1N)c1c(Cl)ccc(F)c1Cl [Crizotinib] (partner 1 µM)
How it was run: as §1

[3] = compound: C[C@@]1(C(=O)Nc2ccc(F)nc2)CCCN1c1nc(Nc2cc(C3CC3)n[nH]2)c2cccn2n1 + Nc1nc2[nH]cc(CCc3ccc(C(=O)N[C@@H](CCC(=O)O)C(=O)O)cc3)c2c(=O)[nH]1 [Pemetrexed] (partner 0.2 µM)
How it was run: as §1

Cell Line	relative viability (Motesanib + Tozasertib; first compound 0.01 µM)	relative viability (Motesanib + Tozasertib; first compound 0.03162 µM)	relative viability (Motesanib + Tozasertib; first compound 0.1 µM)	relative viability (Motesanib + Tozasertib; first compound 0.3162 µM)	relative viability (Motesanib + Tozasertib; first compound 1 µM)	relative viability ([1]; first compound 0.04 µM)	relative viability ([1]; first compound 0.1265 µM)	relative viability ([1]; first compound 0.4 µM)	relative viability ([1]; first compound 1.265 µM)	relative viability ([2]; first compound 0.04 µM)	relative viability ([2]; first compound 0.1265 µM)	relative viability ([2]; first compound 0.4 µM)	relative viability ([2]; first compound 1.265 µM)	relative viability ([3]; first compound 0.04 µM)	relative viability ([3]; first compound 0.1265 µM)	relative viability ([3]; first compound 0.4 µM)	relative viability ([3]; first compound 1.265 µM)
NCI-H1355	0.556	0.414	0.639	0.59	0.448	0.776	0.924	0.787	0.86	0.896	0.824	0.728	1.02	1.01	0.957	0.826	0.953
HCC-78	0.486	0.373	0.476	0.355	0.403	0.7	0.505	0.308	0.268	0.31	0.212	0.216	0.307	0.898	0.898	0.913	0.922
NCI-H1563										0.829	0.91	0.947	0.828	0.92	0.708	0.73	0.662
HCC-15	0.454	0.278	0.372	0.451	0.392	0.663	0.561	0.528	0.58	0.749	0.63	0.66	0.714	0.216	0.225	0.209	0.211
EKVX	0.368	0.381	0.356	0.432	0.422	0.944	0.728	0.785	0.593	0.929	0.862	0.612	0.679	0.415	0.307	0.349	0.356
NCI-H2087	0.208	0.204	0.261	0.208	0.258	0.882	0.969	0.854	0.931	0.88	1.06	0.699	0.613	0.669	0.696	0.639	0.668
LK-2	0.177	0.163		0.163	0.181		0.843	0.368	0.494	0.208	0.335	0.224	0.159	0.175	0.195		0.156
NCI-H1437	0.398	0.375	0.393	0.423	0.408	1.04	0.828	0.739	0.919	0.932	0.714	0.561	0.762	0.246	0.242	0.242	0.284
COR-L23	0.238	0.141	0.456	0.193	0.191	1.02	1.06	0.821	0.681	0.737	0.653	0.494	0.333	0.203	0.198	0.173	0.183
ABC-1	0.174	0.188	0.226	0.197	0.149					1.01	0.695	0.7	0.272				
NCI-H522	0.629	0.546	0.611	0.566	0.595									0.832	1.25	0.706	0.933

From the supplement of paper PMC10307832
